According to EP0973746B1, “SUBSTITUTED 3-CYANO QUINOLINES” (Wyeth Holdings Corporation, priority 1997, dated 1998):
In brackets after ≈: the same amount, converted by molar mass. Several values for one entry are separate records, joined by “and”; a condition that tells them apart may be missing. Equal values may be shown once. Where a name gives a salt, the structure may show the parent alone. Read-outs that look alike come from different tables or passages of the source. Blank lines part the entries; values can stand above or below the molecule they belong to.

Tests used:
SKBR3 = experiment: Inhibition of cancer cell growth as measured by cell number, SKBR3; type: cell-based, human; conditions: for IC50: Homo sapiens;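 as to all read-outs here: SK-BR-3 cells were selected as a line overexpressing HER2/neu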
Description: (§1) The cell lines were chosen since they overexpressed epidermal growth factor receptor (EGFR) (i.e. A431) or HER2/neu (SKBR3), or had little to no expression of the these receptors (SW620, LOX, MCF7).

[1] = biological target: T1, His-tagged cytoplasmic domain of EGFR (Homo sapiens, UniProt P00533); experiment: Inhibition of Epidermal Growth Factor Receptor Kinase (EGF-R) using recombinant enzyme; type: biochemical;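 also: radiometric kinase assay measuring radiolabeled phosphate transfer from ATP onto the peptide tyrosine by scintillation counting, control is reaction without compound, background subtracted, IC50 from dose-response curve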
T1 construct: containing the EGFR cDNA encoding amino acids 645 - 1186 preceded by Met-Ala-(His)6; made in house; host or cells: Sf9 cells, recombinant baculovirus vHcEGFR52
Protocol: The enzyme used in this assay is the His-tagged cytoplasmic domain of EGFR.
Compounds to be evaluated were made into 10 mg/mL stock solutions in 100% dimethylsulfoxide (DMSO). Prior to experiment, stock solutions were diluted to 500 µM with 100% DMSO and then serially diluted to the desired concentration with HEPES buffer (30 mM HEPES pH 7.4).
For the enzyme reaction, 10 µL of each inhibitor (at various concentrations) were added to each well of a 96-well plate. […] This was allowed to sit for 10 min on ice and was followed by the addition of 5 µl peptide (80 µM final conc.), 10µl of 4X Buffer (Table A), 0.25 µL ^33P-ATP and 12 µL H2O. The reaction was allowed to run for 90 min at room temperature and was followed by spotting the entire volume on to precut P81 filter papers. The filter discs were washed 2X with 0.5% phosphoric acid and radioactivity was measured using a liquid scintillation counter.
The % inhibition of the test compound was determined for at least three different concentrations and the IC50 value was evaluated from the dose response curve. […] CPM(control) is in units of counts per minute and was a number expressing the amount of radiolabeled ATP (g-33P) incorporated into the RR-SRC peptide substrate by the enzyme after 90 minutes at room temperature in the absence of test compound as measured by liquid scintillation counting. The CPM values were corrected for the background counts produced by ATP in the absence of the enzymatic reaction. The IC50 values reported in TABLE 2 are averages of the number of tests conducted.

A431 = experiment: Inhibition of cancer cell growth as measured by cell number, A431; type: cell-based, human; conditions: for IC50: Homo sapiens, A-431, 48 h;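 as to all read-outs here: human A431 line, picked because it overexpresses epidermal growth factor receptor (EGFR)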
Description: as §1

[2] = biological target: recombinant human MEK 1 (MAPKK) and recombinant human ERK2 (MAPK); experiment: Mitogen Activated Protein Kinase (MAPK) assay, two component coupled MEK 1 / ERK2; type: biochemical; conditions: separate entries for the same compound = evaluated more than one time;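 also: MEK 1-activated ERK2 phosphorylates MBP or Myc peptide with 33P-ATP, filter capture and scintillation counting, inhibitor preincubated with ERK2 30 min at 0 °C, inhibition relative to uninhibited control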
SW620 = experiment: Inhibition of cancer cell growth as measured by cell number, SW620; type: cell-based, human; conditions: for IC50: Homo sapiens, SW-620, 48 h;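 as to all read-outs here: SW620 was included as a cell line with little or no EGFR or HER2/neu expression, in contrast to receptor-overexpressing lines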
Description: as §1

[3] = cell number, Sulforhodamine B, 48 hours exposure, Table 8
[4] = recombinant enzyme, RR-SRC peptide, average of the number of tests, read-out: IC50
[5] = SK-BR-3, cell number, Sulforhodamine B, 48 hours exposure, Table 8, read-out: IC50 SKBR3
[6] = cell number, Sulforhodamine B, 48 hours exposure, Table 8, read-out: IC50 SW620
[7] = cell number, Sulforhodamine B, 48 hours exposure, Table 8, read-out: IC50 A431
[8] = SK-BR-3, 48 h, read-out: IC50 SKBR3, cell number, Sulforhodamine B, 48 hours exposure, Table 8
[9] = read-out: IC50 SW620, cell number, Sulforhodamine B, 48 hours exposure, Table 8
[10] = read-out: IC50 A431, cell number, Sulforhodamine B, 48 hours exposure, Table 8

IC50 SKBR3 (SKBR3; [3]): 0.1 µg/mL and 0.078 µg/mL
IC50 [1, 4]: 30 nM
IC50 A431 (A431; [3]): 0.3 µg/mL and 0.159 µg/mL
Molecule: 4-Dimethylamino-but-2-enoic acid [4-(3-bromophenylamino)-3-cyano-quinolin-6-yl]-amide [Example 99]

IC50 [2]: > 100000 nM
IC50 (SKBR3; [5]): 0.144 µg/mL (≈ 0.353 µM)
IC50 [1, 4]: ≥ 10000 nM
IC50 (SW620; [6]): 0.208 µg/mL (≈ 0.51 µM)
IC50 (A431; [7]): 0.095 µg/mL (≈ 0.233 µM)
Molecule: CCOc1cc2ncc(C#N)c(NCc3ccc(OC)c(OC)c3)c2cc1OCC [Example 63, 4-(3,4-Dimethoxyphenylmethylamino)-6,7-diethoxy-3-quinolinecarbonitrile]

IC50 [2]: 20000 nM
IC50 (SKBR3; [5]): > 10 µg/mL
IC50 [1, 4]: 100 nM
IC50 (SW620; [6]): > 10 µg/mL
IC50 (A431; [7]): > 10 µg/mL
Molecule: CNCC=CC(=O)Nc1ccc2ncc(C#N)c(Nc3cccc(Br)c3)c2c1 [Example 101, 4-Methylamino-but-2-enoic acid [4-(3-bromophenylamino)-3-cyano-quinolin-6-yl]-amide]

Molecule: Cc1cccc(Nc2c(C#N)cnc3ccc(N)cc23)c1 [Example 133, 6-Amino-4-[(3-methylphenyl)amino]-3-quinolinecarbonitrile]
IC50 [2]: > 100000 nM
IC50 [1, 4]: 6 nM

Molecule: CC#CC(=O)Nc1ccc2ncc(C#N)c(Nc3cccc(OC)c3)c2c1 [Example 139, N-{3-Cyano-4-[(3-methoxyphenyl)amino]-6-quinolinyl}-2-butynamide]
IC50 [2]: 35000 nM
IC50 [1, 4]: 500 nM

Molecule: COc1cccc(Nc2c(C#N)cnc3ccc(NC(=O)C#CCN4CCCCC4)cc23)c1 [Example 140, N-{3-cyano-4-[(3-methoxyphenyl)amino]-6-quinolinyl}-4-piperidino-2-butynamide]
IC50 [2]: > 100000 nM
IC50 (SKBR3; [8]): 0.02 µg/mL (≈ 0.0455 µM)
IC50 [1, 4]: 0.6 nM
IC50 (SW620; [9]): 0.1 µg/mL (≈ 0.228 µM)
IC50 (A431; [10]): 0.02 µg/mL (≈ 0.0455 µM)

Molecule: CC#CC(=O)Nc1ccc2ncc(C#N)c(Nc3ccc(F)c(Cl)c3)c2c1 [Example 143, N-{4-[(3-Chloro-4-fluoro-phenyl)amino]-3-cyano-6-quinolinyl}-2-butynamide]
IC50 [2]: 40000 nM
IC50 [1, 4]: 30 nM

Molecule: C=CC(=O)Nc1ccc2ncc(C#N)c(Nc3ccc(F)c(Cl)c3)c2c1 [Example 144, N-{4-[(3-Chloro-4-fluorophenyl)amino]-3-cyano-6-quinolinyl}-2-propenamide]
IC50 [2]: 40000 nM
IC50 [1, 4]: 65 nM

IC50 [2]: 6000 nM
IC50 (SKBR3; [5]): 0.03 µg/mL (≈ 0.0664 µM)
IC50 [1, 4]: 30 nM
IC50 (SW620; [6]): 0.6 µg/mL (≈ 1.33 µM)
IC50 (A431; [7]): 0.03 µg/mL (≈ 0.0664 µM)
Molecule: CCN(CC)CC=CC(=O)Nc1ccc2ncc(C#N)c(Nc3ccc(F)c(Cl)c3)c2c1 [Example 146, N-{4-[(3-Chloro-4-fluorophenyl)amino]-3-cyano-6-quinoliny}-4-diethylamino-2-butenamide]

Molecule: CC#CC(=O)Nc1ccc2ncc(C#N)c(Nc3ccc(Sc4ccccc4)c(Cl)c3)c2c1 [Example 157]
IC50 [2]: 90000 nM
IC50 (SKBR3; [8]): 2.6 µg/mL (≈ 5.55 µM)
IC50 [1, 4]: 45 nM
IC50 (SW620; [9]): 4.17 µg/mL (≈ 8.89 µM)
IC50 (A431; [10]): 3.26 µg/mL (≈ 6.95 µM)

Molecule: C=CC(=O)Nc1ccc2ncc(C#N)c(Nc3cccc(C#N)c3)c2c1 [Example 160, N-[3-Cyano-4-[(3-cyanophenyl)amino]-6-quinolinyl}-2-propenamide]
IC50 [2]: 30000 nM
IC50 (SKBR3; [8]): 0.5 µg/mL (≈ 1.47 µM)
IC50 [1, 4]: 2 nM
IC50 (SW620; [9]): 2.3 µg/mL (≈ 6.78 µM)
IC50 (A431; [10]): 0.2 µg/mL (≈ 0.589 µM)

Molecule: N#Cc1cccc(Nc2c(C#N)cnc3ccc(NC(=O)C#CCN4CCCCC4)cc23)c1 [Example 161, N-{3-Cyano-4-[(3-cyanophenyl)amino]-6-quinolinyl}-4-piperidino-2-butynamide]
IC50 [2]: 55000 nM
IC50 (SKBR3; [8]): 0.04 µg/mL (≈ 0.0921 µM)
IC50 [1, 4]: 0.35 nM
IC50 (SW620; [9]): 0.2 µg/mL (≈ 0.46 µM)
IC50 (A431; [10]): 0.1 µg/mL (≈ 0.23 µM)

Molecule: C#Cc1cccc(Nc2c(C#N)cnc3ccc(NC(=O)C#CCN4CCCCC4)cc23)c1 [Example 166, N-{3-cyano-4-[(3-ethynylphenyl)amino]-6-quinolinyl)-4-piperidino-2-butynamide]
IC50 [2]: > 100000 nM
IC50 (SKBR3; [8]): 0.02 µg/mL (≈ 0.0461 µM)
IC50 [1, 4]: 20 nM
IC50 (SW620; [9]): 0.04 µg/mL (≈ 0.0923 µM)
IC50 (A431; [10]): 0.02 µg/mL (≈ 0.0461 µM)

Molecule: CCCN(CC#CC(=O)Nc1ccc2ncc(C#N)c(Nc3cccc(Br)c3)c2c1)CCC [Example 170]
IC50 [2]: > 100000 nM
IC50 SKBR3 (SKBR3): 0.03 µg/mL (≈ 0.0595 µM)
IC50 [1, 4]: 60 nM
IC50 SW620 (SW620): 0.1 µg/mL (≈ 0.198 µM)
IC50 A431 (A431): 0.03 µg/mL (≈ 0.0595 µM)

IC50 [2]: 90000 nM
IC50 (SKBR3; [5]): 0.067 µg/mL (≈ 0.143 µM)
IC50 [1, 4]: 5 nM
IC50 (SW620; [6]): 1.59 µg/mL (≈ 3.4 µM)
IC50 (A431; [7]): 0.255 µg/mL (≈ 0.544 µM)
Molecule: CN(C)CC=CC(=O)Nc1ccc2ncc(C#N)c(Nc3ccc(F)c(Br)c3)c2c1 [Example 172, N-{4-[(3-Bromo-4-fluorophenyl)amino]-3-cyano-6-quinolinyl} -4-dimethylamino-2-butenamide]

IC50 [2]: 8000 nM
IC50 [1, 4]: 30 nM
Molecule: CCN(CC)CC=CC(=O)Nc1ccc2ncc(C#N)c(Nc3ccc(F)c(Br)c3)c2c1 [Example 173, N-{4-[(3-Bromo-4-fluorophenyl)amino]-3-cyano-6-quinolinyl}-4-diethylamino-2-butenamide]

Molecule: COc1cc2ncc(C#N)c(Nc3ccc(F)c(Br)c3)c2cc1NC(=O)C=CCN1CCOCC1 [Example 175, N-{4-[(3-Bromo-4-fluorophenyl)amino]-3-cyano-7-methoxy-6-quinolinyl}-4-morpholino-2-butenamide]
IC50 (SKBR3; [8]): 0.18 µg/mL (≈ 0.333 µM)
IC50 [1, 4]: 300 nM
IC50 (SW620; [9]): 4.95 µg/mL (≈ 9.16 µM)
IC50 (A431; [10]): 0.144 µg/mL (≈ 0.266 µM)

Molecule: CN(C)C/C=C\C(=O)Nc1ccc2ncc(C#N)c(Nc3ccc(F)c(Cl)c3)c2c1 [Example 184, N-[4-[(3-Chloro-4-fluorophenyl)amino]-3-cyano-6-quinolinyl]-4-dimethylamino-(Z)-2-butenamide]
IC50 (SKBR3; [8]): 0.3 µg/mL (≈ 0.708 µM)
IC50 [1, 4]: 1700 nM
IC50 (SW620; [9]): 0.463 µg/mL (≈ 1.09 µM)
IC50 (A431; [10]): 0.158 µg/mL (≈ 0.373 µM)

IC50 (SKBR3; [5]): 1.11 µg/mL (≈ 2.7 µM)
IC50 [1, 4]: ≥ 10000 nM
IC50 (SW620; [6]): 2.18 µg/mL (≈ 5.31 µM)
IC50 (A431; [7]): 0.34 µg/mL (≈ 0.828 µM)
Molecule: COC/C=C\C(=O)Nc1ccc2ncc(C#N)c(Nc3ccc(F)c(Cl)c3)c2c1 [Example 185, N-[4-[(3-Chloro-4-fluorophenyl)amino]-3-cyano-6-quinolinyl]-4-methoxy-(Z)-2-butenamide]

Molecule: CCN(CC)CC#CC(=O)Nc1ccc2ncc(C#N)c(Nc3ccc(F)c(Cl)c3)c2c1 [Example 189, N-[4-[(3-Chloro-4-fluorophenyl)amino]-3-cyano-6-quinolinyl]-4-diethylamino-2-butynamide]
IC50 [2]: 50000 nM
IC50 (SKBR3; [8]): 0.03 µg/mL (≈ 0.0667 µM)
IC50 [1, 4]: 2 nM
IC50 (SW620; [9]): 0.1 µg/mL (≈ 0.222 µM)
IC50 (A431; [10]): 0.04 µg/mL (≈ 0.0889 µM)

IC50 SKBR3 (SKBR3; [3]): 0.03 µg/mL (≈ 0.0625 µM)
IC50 [1]: 0.008 nM
IC50 SW620 (SW620; [3]): 0.4 µg/mL (≈ 0.833 µM)
IC50 A431 (A431; [3]): 0.002 µg/mL (≈ 0.00416 µM)
Molecule: COc1cc2ncc(C#N)c(Nc3cccc(Br)c3)c2cc1NC(=O)C=CCN(C)C [Example 198, 4-Dimethylamino-but-2-enoic acid [4-(3-brom-phenylamino)-3-cyano-7-methoxy-quinolin-6yl]-amide]

IC50 (SKBR3; [5]): 0.076 µg/mL (≈ 0.149 µM)
IC50 [1, 4]: 0.5 nM
IC50 (SW620; [6]): 0.433 µg/mL (≈ 0.852 µM)
IC50 (A431; [7]): 0.048 µg/mL (≈ 0.0944 µM)
Molecule: CCN(CC)CC=CC(=O)Nc1cc2c(Nc3cccc(Br)c3)c(C#N)cnc2cc1OC [Example 199, 4-Diethylamino-but-2-enoic acid [4-(3-bromo-phenylamino)-3-cyano-7-methoxy-quinolin-6-yl]-amide]

Molecule: COc1cc2ncc(C#N)c(Nc3cccc(Br)c3)c2cc1NC(=O)C#CCN(C)C [Example 227, 4-Dimethylamino-but-2-ynoic acid [4-(3-bromo-phenylamino)-3-cyano-7-methoxy-quinol-6-yl]-amide]
IC50 (SKBR3; [8]): 0.2 µg/mL (≈ 0.418 µM)
IC50 [1, 4]: 10 nM
IC50 (SW620; [9]): 0.1 µg/mL (≈ 0.209 µM)
IC50 (A431; [10]): 0.02 µg/mL (≈ 0.0418 µM)

Molecule: COc1cc2ncc(C#N)c(Nc3cccc(N)c3)c2cc1OC [Example 264, 4-(3-Aminophenylamino)-6,7-dimethoxy-3-quinolinecarbonitrile]
IC50 [2]: 3000 nM
IC50 [1, 4]: 500 nM

Molecule: COc1cc2ncc(C#N)c(Nc3cccc(CS)c3)c2cc1OC [Example 270]
IC50 [2]: > 100000 nM
IC50 [1, 4]: 10 nM

IC50 [2]: > 100000 nM
IC50 [1, 4]: 400 nM
Molecule: COc1cc2c(Nc3cccc(Br)c3)c(C#N)cnc2cc1OCCCN1CCOCC1 [Example 313, 4-(3-Bromo-phenylamino)-6-methoxy-7-(3-morpholin-4-yl-propoxy)-quinoline-3-carbonitrile]

IC50 [2]: 35000 nM
IC50 [1, 4]: 0.05 nM
Molecule: N#Cc1cnc2ccc(NC(=O)/C=C/Cl)cc2c1Nc1cccc(Br)c1 [Example 326, N-[4-(3-Bromo-phenylamino)-3-cyano-quinolin-6-yl]-3-chloro-(E) acrylamide]

IC50 (SKBR3; [5]): 0.2 µg/mL (≈ 0.424 µM)
IC50 [1, 4]: 40 nM
IC50 (SW620; [6]): 0.2 µg/mL (≈ 0.424 µM)
IC50 (A431; [7]): 0.04 µg/mL (≈ 0.0848 µM)
Molecule: COc1cc2ncc(C#N)c(Nc3cccc(Br)c3)c2cc1NC(=O)C=CCCl [Example 347, N-{4-[(3-Bromophenyl)amino]-3-cyano-7-methoxy-6-quinolinyl} -4-chloro-2-butenamide]

IC50 [2]: > 100000 nM
IC50 [1, 4]: 7 nM
Molecule: C=CC(=O)Nc1ccc2ncc(C#N)c(Nc3ccc(Br)c(Br)c3)c2c1 [Example 380, N-[3-Cyano-4-(3,4-dibromophenylamino)quinolin-6-yl]acrylamide]

IC50 [2]: > 100000 nM
IC50 [1, 4]: 7 nM
Molecule: C=C(C)C(=O)Nc1ccc2ncc(C#N)c(Nc3cccc(Br)c3)c2c1 [Example 383, N-[4-(3-Bromophenylamino)-3-cyanoquinolin-6-yl]-2-methylacrylamide]

IC50 [2]: 15000 nM
IC50 [1, 4]: 500 nM
Molecule: CN(C)c1ccc2ncc(C#N)c(Nc3cccc(Br)c3)c2c1 [Example 395, 4-(3-Bromophenylamino)-6-dimethylaminoquinoline-3-carbonitrile Hydrochloride]
